Consider 31 molecules from patent US9663508B2, “Biaryl acyl-sulfonamide compounds as sodium channel inhibitors” (AMGEN INC., priority 2013, dated 2017).

Sequence of human Nav1.7 (Q15858 whole entry): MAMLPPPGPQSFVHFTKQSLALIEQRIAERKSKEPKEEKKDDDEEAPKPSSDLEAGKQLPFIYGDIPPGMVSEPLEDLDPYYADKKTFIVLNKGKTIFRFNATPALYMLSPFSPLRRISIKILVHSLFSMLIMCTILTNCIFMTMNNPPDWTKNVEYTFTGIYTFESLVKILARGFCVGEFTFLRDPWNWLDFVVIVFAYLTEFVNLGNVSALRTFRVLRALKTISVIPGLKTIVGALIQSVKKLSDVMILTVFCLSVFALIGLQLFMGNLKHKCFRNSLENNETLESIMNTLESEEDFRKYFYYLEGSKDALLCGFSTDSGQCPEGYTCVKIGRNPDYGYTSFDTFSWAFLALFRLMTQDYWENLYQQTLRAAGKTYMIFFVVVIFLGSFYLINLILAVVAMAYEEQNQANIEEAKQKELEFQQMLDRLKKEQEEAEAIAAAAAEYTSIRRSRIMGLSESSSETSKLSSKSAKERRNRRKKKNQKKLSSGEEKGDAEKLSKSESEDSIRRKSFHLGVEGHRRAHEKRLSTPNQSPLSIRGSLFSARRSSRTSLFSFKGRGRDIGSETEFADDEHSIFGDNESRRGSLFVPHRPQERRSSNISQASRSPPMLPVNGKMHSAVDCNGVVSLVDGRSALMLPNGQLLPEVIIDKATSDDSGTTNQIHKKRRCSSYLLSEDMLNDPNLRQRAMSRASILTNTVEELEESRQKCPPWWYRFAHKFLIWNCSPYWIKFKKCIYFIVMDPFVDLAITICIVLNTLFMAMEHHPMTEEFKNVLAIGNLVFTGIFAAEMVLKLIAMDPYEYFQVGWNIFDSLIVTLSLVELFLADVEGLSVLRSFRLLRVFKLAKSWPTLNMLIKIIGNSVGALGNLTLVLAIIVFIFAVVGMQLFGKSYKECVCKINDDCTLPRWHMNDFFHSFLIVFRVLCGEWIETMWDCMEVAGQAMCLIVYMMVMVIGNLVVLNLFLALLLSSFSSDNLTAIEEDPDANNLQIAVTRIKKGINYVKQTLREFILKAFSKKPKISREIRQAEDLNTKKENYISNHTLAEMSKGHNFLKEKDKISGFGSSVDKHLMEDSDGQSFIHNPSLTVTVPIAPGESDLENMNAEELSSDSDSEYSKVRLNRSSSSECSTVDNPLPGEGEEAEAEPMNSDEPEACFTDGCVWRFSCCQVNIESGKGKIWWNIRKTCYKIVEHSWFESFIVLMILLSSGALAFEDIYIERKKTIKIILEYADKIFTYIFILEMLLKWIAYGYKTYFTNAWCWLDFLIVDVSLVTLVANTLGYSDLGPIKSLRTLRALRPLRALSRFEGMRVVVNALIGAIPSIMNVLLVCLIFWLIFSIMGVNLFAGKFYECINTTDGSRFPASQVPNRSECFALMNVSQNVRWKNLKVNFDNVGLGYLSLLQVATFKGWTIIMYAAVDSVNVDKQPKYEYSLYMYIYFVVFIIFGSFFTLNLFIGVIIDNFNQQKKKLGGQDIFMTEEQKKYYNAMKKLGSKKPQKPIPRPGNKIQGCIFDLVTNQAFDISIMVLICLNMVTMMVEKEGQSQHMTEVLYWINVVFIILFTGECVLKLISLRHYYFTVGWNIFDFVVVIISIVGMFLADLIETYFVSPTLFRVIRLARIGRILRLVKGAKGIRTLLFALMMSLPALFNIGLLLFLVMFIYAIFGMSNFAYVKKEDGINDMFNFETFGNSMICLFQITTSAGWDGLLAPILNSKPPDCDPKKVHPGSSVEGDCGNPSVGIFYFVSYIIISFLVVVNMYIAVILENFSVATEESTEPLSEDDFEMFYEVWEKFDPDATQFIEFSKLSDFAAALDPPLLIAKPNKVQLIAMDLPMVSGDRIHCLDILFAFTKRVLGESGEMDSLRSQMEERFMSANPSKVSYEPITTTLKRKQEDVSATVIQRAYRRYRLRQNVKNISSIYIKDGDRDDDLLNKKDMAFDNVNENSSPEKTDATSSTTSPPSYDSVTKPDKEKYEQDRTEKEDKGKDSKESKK

The test concerns the target human Nav1.7 (Homo sapiens (Human), UniProt Q15858). Kind of test: Nav 1.7 in vitro PatchXpress (PX) assay. The test is classed as cell-based.
As for `COc1cc(C(=O)NS(C)(=O)=O)ccc1-c1cnc(Oc2c(C)cc(Cl)cc2Cl)c(Cl)c1` [Example 578, 4-(5-Chloro-6-(2,4-Dichloro-6-Methylphenoxy)-Pyridin-3-yl)-3-Methoxy-N-(Methylsulfonyl)Benzamide], 29.6 nM corresponded to half-maximal inhibition (IC50). This lies in the double-digit nanomolar range.

Regarding `COc1cc(C(=O)NS(C)(=O)=O)ccc1-c1cnc(Oc2cccc(Cl)c2C)c(Cl)c1` [Example 579, 4-(5-chloro-6-(3-chloro-2-methylphenoxy)-3-pyridinyl)-3-methoxy-N-(methylsulfonyl)benzamide], half-maximal inhibition (IC50) was put at 48.6 nM.

The molecule `COc1cc(C(=O)NS(C)(=O)=O)ccc1-c1cnc(Oc2ccc3c(c2)CCC3)c(Cl)c1` [Example 580, 4-(5-chloro-6-(2,3-dihydro-1H-inden-5-yloxy)-3-pyridinyl)-3-methoxy-N-(methylsulfonyl)benzamide] displayed an IC50 of 66.1 nM.

Molecule `COc1cc(C(=O)NS(C)(=O)=O)ccc1-c1cnc(Oc2c(Cl)cccc2Cl)c(Cl)c1` [Example 581, 4-(5-chloro-6-(2,6-dichlorophenoxy)-3-pyridinyl)-3-methoxy-N-(methylsulfonyl)benzamide] yielded an IC50 of 84.6 nM.

`COc1cc(C(=O)NS(C)(=O)=O)ccc1-c1cnc(Oc2cc(Cl)ccc2Cl)c(Cl)c1` [Example 582, 4-(5-chloro-6-(2,5-dichlorophenoxy)-3-pyridinyl)-3-methoxy-N-(methylsulfonyl)benzamide] yielded an IC50 of 61.4 nM.

For the molecule `COc1cc(C(=O)NS(C)(=O)=O)ccc1-c1cnc(Oc2cccc(Cl)c2Cl)c(Cl)c1` [Example 583, 4-(5-Chloro-6-(2,3-Dichlorophenoxy)Pyridin-3-yl)-3-Methoxy-N-(Methylsulfonyl)Benzamide], the IC50 worked out at 30.5 nM.

In the case of `Cc1cc(Cl)cc(Cl)c1Oc1ncc(-c2ccc(C(=O)NS(C)(=O)=O)cc2OC2COC2)cc1Cl` [Example 584, 4-(5-chloro-6-(2,4-dichloro-6-methylphenoxy)-3-pyridinyl)-N-(methylsulfonyl)-3-(3-oxetanyloxy)benzamide], the IC50 amounted to 59 nM.

In turn, `Cc1c(Cl)cccc1Oc1ncc(-c2ccc(C(=O)NS(C)(=O)=O)cc2OC(F)F)cc1Cl` [Example 586, 4-(5-chloro-6-(3-chloro-2-methylphenoxy)-3-pyridinyl)-3-(difluoromethoxy)-N-(methylsulfonyl)benzamide] showed an IC50 of 34.6 nM.

`Cc1cc(Cl)cc(Cl)c1Oc1ncc(-c2cc(F)c(C(=O)NS(C)(=O)=O)cc2Cl)cc1Cl` [Example 598, 5-chloro-4-(5-chloro-6-(2,4-dichloro-6-methylphenoxy)-3-pyridinyl)-2-fluoro-N-(methylsulfonyl)benzamide] showed an IC50 of 18.4 nM. Compared with the last molecule, the IC50 is about 1.9-fold lower.

The molecule `CS(=O)(=O)NC(=O)c1cc(Cl)c(-c2cnc(OCC3CCCC3)c(Cl)c2)cc1F` [Example 600, 5-chloro-4-(5-chloro-6-(cyclopentylmethoxy)-3-pyridinyl)-2-fluoro-N-(methylsulfonyl)benzamide] showed an IC50 of 91.9 nM. This IC50 is about 5-fold higher than that of the molecule before.

Turning to `CCC(CC)Oc1ncc(-c2cc(F)c(C(=O)NS(C)(=O)=O)cc2Cl)cc1Cl` [Example 601, 5-chloro-4-(5-chloro-6-(1-ethylpropoxy)-3-pyridinyl)-2-fluoro-N-(methylsulfonyl)benzamide], the IC50 came out at 75.4 nM.

`CC1(Oc2ncc(-c3cc(F)c(C(=O)NS(C)(=O)=O)cc3Cl)cc2Cl)CCC1` [Example 602, 5-chloro-4-(5-chloro-6-((1-methylcyclobutyl)oxy)-3-pyridinyl)-2-fluoro-N-(methylsulfonyl)benzamide] came in with an IC50 of 100 nM.

For the molecule `Cc1cc(C(=O)NS(C)(=O)=O)c(F)cc1-c1cnc(Oc2ccc(F)cc2F)c(Cl)c1` [Example 603, 4-(5-chloro-6-(2,4-difluorophenoxy)-3-pyridinyl)-2-fluoro-5-methyl-N-(methylsulfonyl)benzamide], the IC50 was 143 nM.

Molecule `Cc1cc(C(=O)NS(C)(=O)=O)c(F)cc1-c1cnc(Oc2cccc(F)c2F)c(Cl)c1` [Example 604, 4-(5-chloro-6-(2,3-difluorophenoxy)-3-pyridinyl)-2-fluoro-5-methyl-N-(methylsulfonyl)benzamide] registered an IC50 of 109 nM.

With `Cc1cc(C(=O)NS(C)(=O)=O)c(F)cc1-c1cnc(Oc2cccc3c2CCCC3)c(Cl)c1` [Example 610, 4-(5-chloro-6-(5,6,7,8-tetrahydro-1-naphthalenyloxy)-3-pyridinyl)-2-fluoro-5-methyl-N-(methylsulfonyl)benzamide], half-maximal inhibition (IC50) was put at 104 nM.

In turn, `Cc1cccc(Oc2ncc(-c3cc(F)c(C(=O)NS(C)(=O)=O)cc3C)cc2Cl)c1` [Example 621, 4-(5-chloro-6-(3-methylphenoxy)-3-pyridinyl)-2-fluoro-5-methyl-N-(methylsulfonyl)benzamide] had an IC50 of 108 nM. The IC50 values of the last two molecules are within 1.5-fold of each other.

On to `Cc1cc(C(=O)NS(C)(=O)=O)c(F)cc1-c1cnc(Oc2c(F)ccc(Cl)c2F)c(Cl)c1` [Example 625, 4-(5-chloro-6-(3-chloro-2,6-difluorophenoxy)-3-pyridinyl)-2-fluoro-5-methyl-N-(methylsulfonyl)benzamide], for which the IC50 is 83.7 nM. This IC50 and that of the molecule before are within 1.5-fold of each other.

Regarding `Cc1cc(C(=O)NS(C)(=O)=O)c(F)cc1-c1cnc(Oc2ccc(F)c(Cl)c2)c(Cl)c1` [Example 626, 4-(5-chloro-6-(3-chloro-4-fluorophenoxy)-3-pyridinyl)-2-fluoro-5-methyl-N-(methylsulfonyl)benzamide], inhibition was half-maximal at 108 nM (IC50).

The molecule `CC[C@@H](Oc1ncc(-c2cc(F)c(C(=O)NS(C)(=O)=O)cc2C)cc1Cl)c1ccc(F)cc1` [Example 639, 4-(5-chloro-6-(((1R)-1-(4-fluorophenyl)propyl)oxy)-3-pyridinyl)-2-fluoro-5-methyl-N-(methylsulfonyl)benzamide, 4-(5-chloro-6-(((1S)-1-(4-fluorophenyl)propyl)oxy)-3-pyridinyl)-2-fluoro-5-methyl-N-(methylsulfonyl)benzamide] had an IC50 of 70.4 nM. This IC50 is about 1.5-fold lower than that of the molecule before.

With `Cc1cc(C(=O)NS(C)(=O)=O)c(F)cc1-c1cnc(N2CCC[C@@H]2c2cccc(C(F)(F)F)c2)c(Cl)c1` [Example 655, 4-(5-chloro-6-((2R)-2-(3-(trifluoromethyl)phenyl)-1-pyrrolidinyl)-3-pyridinyl)-2-fluoro-5-methyl-N-(methylsulfonyl)benzamide, 4-(5-chloro-6-((2S)-2-(3-(trifluoromethyl)phenyl)-1-pyrrolidinyl)-3-pyridinyl)-2-fluoro-5-methyl-N-(methylsulfonyl)benzamide], the IC50 was determined as 102 nM.

The molecule `Cc1cc(C(=O)NS(C)(=O)=O)c(F)cc1-c1cnc(N2CCC[C@@H]2c2ccccc2C(F)(F)F)c(Cl)c1` [Example 659, 4-(5-chloro-6-((2R)-2-(2-(trifluoromethyl)phenyl)-1-pyrrolidinyl)-3-pyridinyl)-2-fluoro-5-methyl-N-(methylsulfonyl)benzamide, 4-(5-chloro-6-((2S)-2-(2-(trifluoromethyl)phenyl)-1-pyrrolidinyl)-3-pyridinyl)-2-fluoro-5-methyl-N-(methylsulfonyl)benzamide] returned an IC50 of 107 nM.

Turning to `Cc1cc(C(=O)NS(C)(=O)=O)c(F)cc1-c1cnc(Oc2ccc(OC(C)C)cc2)c(Cl)c1` [Example 663, 4-(5-chloro-6-(4-(1-methylethoxy)phenoxy)-3-pyridinyl)-2-fluoro-5-methyl-N-(methylsulfonyl)benzamide], half-maximal inhibition (IC50) was put at 108 nM.

Consider `Cc1cc(C(=O)NS(C)(=O)=O)c(F)cc1-c1cnc(Oc2ccc(C(F)(F)F)c(F)c2)c(Cl)c1` [Example 671, 4-(5-chloro-6-(3-fluoro-4-(trifluoromethyl)phenoxy)-3-pyridinyl)-2-fluoro-5-methyl-N-(methylsulfonyl)benzamide], for which the IC50 came out at 123 nM.

As to `CC[C@H](Oc1ncc(-c2cc(F)c(C(=O)NS(C)(=O)=O)cc2C)cc1Cl)c1cccc(Cl)c1` [Example 676, 4-(5-chloro-6-(((1S)-1-(3-chlorophenyl)propyl)oxy)-3-pyridinyl)-2-fluoro-5-methyl-N-(methylsulfonyl)benzamide], the IC50 was 58.6 nM.

`Cc1cc(C(=O)NS(C)(=O)=O)c(F)cc1-c1cnc(Oc2cccc(C(F)(F)F)c2C)c(Cl)c1` [Example 677, 4-(5-chloro-6-(2-methyl-3-(trifluoromethyl)phenoxy)-3-pyridinyl)-2-fluoro-5-methyl-N-(methylsulfonyl)benzamide] came in with an IC50 of 83.7 nM.

`Cc1cc(C(=O)NS(C)(=O)=O)c(F)cc1-c1cnc(Oc2ccc(F)cc2C(F)(F)F)c(Cl)c1` [Example 678, 4-(5-chloro-6-(4-fluoro-2-(trifluoromethyl)phenoxy)-3-pyridinyl)-2-fluoro-5-methyl-N-(methylsulfonyl)benzamide] came in with an IC50 of 74.4 nM.

Molecule `Cc1cc(C(=O)NS(C)(=O)=O)c(F)cc1-c1cnc(Oc2ccc(Cl)cc2C(F)(F)F)c(Cl)c1` [Example 679, 4-(5-chloro-6-(4-chloro-2-(trifluoromethyl)phenoxy)-3-pyridinyl)-2-fluoro-5-methyl-N-(methylsulfonyl)benzamide] gave an IC50 of 87.5 nM.

As to `CCc1ccc(C)cc1Oc1ncc(-c2cc(F)c(C(=O)NS(C)(=O)=O)cc2C)cc1Cl` [Example 680, 4-(5-chloro-6-(2-ethyl-5-methylphenoxy)-3-pyridinyl)-2-fluoro-5-methyl-N-(methylsulfonyl)benzamide], inhibition was half-maximal at 66.3 nM (IC50).

Regarding `Cc1cc(C(=O)NS(C)(=O)=O)c(F)cc1-c1cnc(O[C@@H](C)c2cccc3ccccc23)c(Cl)c1` [Example 682, 4-(5-chloro-6-((1S)-1-(1-naphthalenyl)ethoxy)-3-pyridinyl)-2-fluoro-5-methyl-N-(methylsulfonyl)benzamide], the IC50 was 55.1 nM.

`Cc1cc(C(=O)NS(C)(=O)=O)c(F)cc1-c1cnc(OCCC2CC2)c(Cl)c1` [Example 683, 4-(5-chloro-6-(2-cyclopropylethoxy)-3-pyridinyl)-2-fluoro-5-methyl-N-(methylsulfonyl)benzamide] came in with an IC50 of 111 nM.

For the molecule `Cc1cc(C(=O)NS(C)(=O)=O)c(F)cc1-c1cnc(O[C@@H](c2ccccc2)C(F)(F)F)c(Cl)c1` [Example 684, 4-(5-chloro-6-((1S)-2,2,2-trifluoro-1-phenylethoxy)-3-pyridinyl)-2-fluoro-5-methyl-N-(methylsulfonyl)benzamide], the IC50 turned out to be 94.1 nM.
